Source: patent US20070111251A1, “Chemical address tags” (priority 2003, published 2007)

Tests used:
[1] = Additive decomposition of peak excitation and emission wavelengths (model coefficients of A and B groups); conditions: for αi^em: influence of A group on peak emission wavelength; for αi^em / αi^ex: A group 1 as baseline; for αi^ex: influence of A group on peak excitation wavelength; for βj^em: influence of B group on peak emission wavelength; for βj^em / βj^ex: B group 1 as baseline; for βj^ex: influence of B group on peak excitation wavelength
Description: The chemical structure of the styryl library is illustrated in FIG. 3. […] Initial analysis focused on measurements of peak emission and excitation wavelength obtained for all styryl products showing a single, localized peak (there were 256 such compounds for emission wavelength, and 193 compounds for excitation wavelength). […] The wavelength for the styryl compound formed by joining A group i with B group j is denoted as λij (or more specifically, λij^ex for excitation wavelength and λij^em for emission wavelength). The additive model λij=ai+βj+εij was fit to the data using least squares yielding parameters αi^ex, αi^em, βj^ex, and βj^em that quantify the influence of each A and B group on the spectrum of the styryl product. […] (FIGS. 8A-8B). […] The predictions were made ignoring interactions between the two functional moieties in the styryl compound. The predicted values were obtained without bias, by holding out the data point to be predicted when training the model.
In preferred embodiments, using the cross-validation approach disclosed herein, each compound was held out in sequence, the model was trained using the remaining compounds, then the wavelength value for the held-out compound was predicted based on the resulting fitted model. This process produced correlations between measured and predicted values of ρ^em=0.78 (emission) and ρ^ex=0.69 (excitation).
Based on this analysis, the contribution of the A and B functional groups to the fluorescence of the styryl product is quantified using the fitted coefficients αi^ex, βj^ex, […], and βj^em. Since these coefficients are on a scale without origin, in some embodiments, the invention uses the first A group and B group as a baseline, so […], β1^ex=0, and so on. Table 3 contains the model coefficients of all A and B groups for peak excitation and emission wavelength.
Greater values of αi^ex, αi^em, βj^ex, and βj^em indicate greater peak wavelength. Greater values of αi^mito and […] indicate stronger mitochondrial localization. A groups 40 and 41 were not screened for localization. A groups 2, 29, and 33 only formed fluorescent products with a single B group, so were not included in the spectral analysis.
In some embodiments, the wavelength values for peak excitation and emission were fit to the additive model λij=αi+βj+εij, where εij denotes error that is made as small as possible in the fitting process. Using least squares to minimize the function [formula] over all compounds having experimental data yields coefficient estimates αi for each A group and βj for each B group. One set of coefficient estimates is obtained for the excitation values and another set is obtained for the emission values. To predict the wavelength of a new compound formed from A and B groups i* and j* the sum αi*+βj* is used.
In some embodiments, for both the spectral and localization analysis, cross-validation was used to obtain unbiased estimates of the prediction performance. Each compound was held out in sequence, and the coefficients αi and βj were fit to the remaining compounds. These values were then used to form a prediction for the held out compound, then the predicted and experimental values were compared to obtain a measure of the accuracy of prediction. Since the wavelength values are on a continuous scale, the predicted values were compared to the experimental values using Pearson correlation coefficients. The localization values are dichotomous, so the proportion of matching predictions was used to compare predicted and experimental localization values.

mitochondria = assay: QSLR factorial logistic regression of mitochondrial localization (affinity coefficients, cross-validated prediction); parameters: species or system human; conditions: for αi^mito: influence of A group on mitochondrial localization, greater = stronger; for estimated A group affinity coefficient ai / estimated B group affinity coefficient bj: mitochondrial affinity; for estimated A group affinity coefficient ai: ±5 for groups always or never mitochondrial; for βj^mito: influence of B group on mitochondrial localization
Description: The first column and first row contain the A group and B group labels. The second column and second row contain the estimated A group and B group affinity coefficients (ai and bj respectively). The interior of the table contains the value sij=ai+bj for each compound (where positive values of sij indicate predicted localization to mitochondria, and negative values of sij indicate predicted localization to a non-mitochondrial compartment). The subscript m indicates experimentally determined mitochondrial localization. The subscript o indicates experimentally determined non-mitochondrial localization. The darkened boxes indicate correctly predicted mitochondrial localizations under cross-validation.
Based on this matrix, factorial logistic regression (See, A. Agresti, Categorical Data Analysis, Wiley [2002]) was used to calculate mitochondrial affinity coefficients (ai and bj) for each A and B moiety. (Table 1). Since it is not necessary to observe all possible pairings between A and B building blocks to estimate the affinity coefficients, the QSLR approach can predict localization of unmeasured styryl molecules based on a minimal set of experimentally-determined localizations (see Methods). The methods of the present invention allow assessment of predictivity using the cross-validation technique by holding out one compound and fitting the affinity coefficients using the remaining compounds, predictivity can be assessed by comparing the actual localization of the held-out compound to its predicted localization. Repeating this for every measured compound in the library yields an error rate for the procedure.
Briefly, this technique assigns quantitative scores to each A group (αi^mito) and to each B group (βj^mito), in such a way that αi^mito+βj^mito is positive for compounds with mitochondrial localization, and is negative for compounds lacking mitochondrial localization. […] In additional embodiments, same analysis can be applied to organelles other than mitochondria, provided there are a sufficient number of localizations to specific non-mitochondrial organelles in the combinatorial library of interest for reliable statistical calculations.
In certain embodiments, the predictive performance of the above method was assessed using a cross-validation approach by calculating the proportion of all compounds that are correctly predicted. For cross-validation, each styryl product was set aside in sequence, and the factorial logistic model was fit to the remaining data. Then the resulting A and B scores for the held-out compound were summed. If the sum was positive, the held-out compound was predicted to be mitochondrial, while if the sum was negative, the held-out compound was predicted to be non-mitochondrial. […] The baseline performance of the method scored 104 correct out of 145, or 72%. This number is highly statistically significant compared to random guessing (p-value ˜10^−7). Thus, across the entire library, A and B moieties appear to contribute to localization in an independent, additive fashion.
In some embodiments, subcellular localization data were converted to binary (0/1) values by assigning a value Gij=1 if compound i,j localized to mitochondria (even if it localized to other […] as well), and assigning Gij=0 if compound i,j localized exclusively to any non-mitochondrial cellular structure. Compounds with no localization were omitted from this part of the analysis. The αi and βj coefficients for A or B groups that are always observed to localize to mitochondria, or that never localize to mitochondria, were set to +/−5, respectively. The binary localization data were analyzed using factorial logistic regression. […]

| SMILES | αi^em [1] | αi^ex [1] | αi^mito (mitochondria) | estimated A group affinity coefficient ai (mitochondria) | βj^em [1] | βj^ex [1] | βj^mito (mitochondria) | estimated B group affinity coefficient bj (mitochondria) | influence of group on peak wavelength [1] | influence of A group on mitochondrial localization (mitochondria) |
| --- | --- | --- | --- | --- | --- | --- | --- | --- | --- | --- |
| O=Cc1ccccc1Br [A group 3] | 46.3 nm | 35.7 nm | 5.0 | 5.0 | – | – | – | – | – | – |
| O=Cc1ccc2c(c1)OCO2 [A group 39] | −25.3 nm | −28.3 nm | 0.0 | 0.0 | – | – | – | – | – | – |
| O=Cc1ccc2ccc3cccc4ccc1c2c34 [A group 41] | 46.9 nm | 26.1 nm | – | – | – | – | – | – | – | – |
| Cc1cc[n+](C)c(C)c1.[I-] [B group 11] | – | – | – | – | −4.1 nm | −4.2 nm | 2.1 | 2.1 | – | – |
| CN(C)c1ccc(C=O)cc1 [A group 19] | 49.6 nm | 26.0 nm | −0.2 | −0.2 | – | – | – | – | strongly contribute towards the red end of the spectrum | – |
| Cc1ccnc(-c2cc(C)cc[n+]2C)c1.[I-] [B group 10] | – | – | – | – | 19.8 nm | 1.6 nm | 0.8 | 0.8 | – | – |
| Cc1cc(C)[n+](C)c(C)c1.[I-] [B group 13] | – | – | – | – | −1.8 nm | −1.1 nm | 2.5 | 2.5 | – | – |
| Cc1ccc[n+](C)c1C.[I-] [B group 4] | – | – | – | – | −23.2 nm | −32.3 nm | 3.0 | 3.0 | – | – |
| Cc1ccc2ccccc2[n+]1C.[I-] [B group 8] | – | – | – | – | 64.8 nm | 53.0 nm | 0.4 | 0.4 | strongly contribute towards the red end of the spectrum | – |
| Cc1cnc2c(ccc3c(C)c(C)c[n+](C)c32)c1C.[I-] [B group 14] | – | – | – | – | 57.9 nm | 100.6 nm | 0.0 | 0.1 | strongly contribute towards the red end of the spectrum | – |
| O=Cc1c[nH]c2ccccc12 [A group 24] | −24.2 nm | −7.2 nm | −1.7 | −1.7 | – | – | – | – | – | – |
| O=Cc1ccc(Br)cc1 [A group 5] | 26.7 nm | −32.3 nm | 5.0 | 5.0 | – | – | – | – | – | – |
| COc1ccc(C=O)cc1OC [A group 11] | −26.7 nm | −14.3 nm | 5.0 | 5.0 | – | – | – | – | – | – |
| COc1ccc(C=O)cc1 [A group 10] | −23.7 nm | 8.1 nm | 1.3 | 1.3 | – | – | – | – | – | – |
| Cc1cc[n+](C)c(Br)c1.[I-] [B group 6] | – | – | – | – | 3.5 nm | 27.7 nm | −5.0 | −5.0 | – | – |
| CCc1ccc(C)[n+](C)c1.[I-] [B group 5] | – | – | – | – | −7.6 nm | −1.6 nm | 2.2 | 2.3 | – | – |
| O=Cc1ccc2ccccc2c1 [A group 33] | −26.5 nm | – | 5.0 | 5.0 | – | – | – | – | bluer | mitochondrial attraction |
| O=Cc1ccc([N+](=O)[O-])cc1 [A group 22] | −10.3 nm | −52.8 nm | 5.0 | 5.0 | – | – | – | – | the far red shift is not observed | – |
| Cc1cc[n+](C)cc1.[I-] [B group 1] | – | – | – | – | 0.0 nm | 0.0 nm | 1.9 | 1.9 | – | – |
| Cc1cc[n+](C23CC4CC(CC(C4)C2)C3)cc1.[Br-] [B group 2] | – | – | – | – | 4.3 nm | 4.9 nm | 2.0 | 2.0 | – | – |
| O=CC=Cc1ccccc1 [A group 35] | −8.3 nm | 0.0 nm | −1.8 | −1.8 | – | – | – | – | – | – |
| O=Cc1ccc(Cl)cc1 [A group 6] | −9.5 nm | 4.9 nm | 5.0 | 5.0 | – | – | – | – | – | – |
| O=Cc1ccccc1 [A group 2] | – | – | 5.0 | 5.0 | – | – | – | – | – | – |
| O=Cc1ccccn1 [A group 40] | 64.8 nm | −18.1 nm | – | – | – | – | – | – | – | – |
